Reference: patent US10830772B2, “Detection method and kit” (The European Union, represented by the European Commission, priority 2015, dated 2020)

Tested on: AhR2 from zebrafish
Assay: Fluorescence binding of the ligand probe to recombinant AhR protein (excitation 280 nm, emission 450 nm)
Source text: The inventors expressed the encoding gene sequence for the AhR2 from zebrafish in Escherichia coli cells to produce the high yield of a 600 amino acid recombinant protein. The protein was purified by using Histidine tag affinity column. The protocol used allowed to obtain a good yield of pure protein that is correctly folded.
The inventors developed an assay for the Aryl Hydrocarbon Receptor binding activity as an alternative to known methods and investigated which molecules are the most suitable for building a competitive binding assay as in vitro ligands, and to make these molecules fluorescent or more fluorescent. […] The same concentration of ethyl 5,11-dihydroindolo[3,2-b]carbazole-6-carboxylate in aqueous buffer environment has a very low fluorescence signal (FIG. 1, bottom line at 328 nm). […] Indeed if ethyl 5,11-dihydroindolo[3,2-b]carbazole-6-carboxylate is a ligand of AhR it moves from an aqueous environment (buffer) to a more hydrophobic environment (hydrophobic internal binding site of the AhR receptor), causing the increase in fluorescence emission at 450 nm.

CCOC(=O)c1c2[nH]c3ccccc3c2cc2[nH]c3ccccc3c12 [ethyl 5,11-dihydroindolo[3,2-b]carbazole-6-carboxylate]
fluorescence emission on addition to the AhR (binding into the active site) (excited at 280 nm, buffer environment, FIG. 1): causes the appearance of an emission peak with maximum at 450 nm | binding affinity to AhR (result in words, suitability for competitive binding assays): high enough to allow the competition of other compounds to the receptor, yet not too high
